In assay [1] the test system is HL-60 cells. The experiment in a line: alamarBlue cell viability assay. It counts as cell-based. The conditions noted are these: Homo sapiens. On the procedure:
Figure 7 Preliminary cell viability data for (A) triazoles 22b–d, 22f, 22g and imidazole 23d and (B) triazoles 26a–e and imidazoles 27a, 27b, 27e, 27f, 27h and 27i in HL-60 cells. Cell proliferation of HL-60 cells was determined with an alamarBlue assay (seeding density 2.5 × 10^4 cells/mL per well for 96-well plates). Compound concentrations of either 1 or 0.1 μM for 72 h were used to treat the cells (in triplicate) with control wells containing vehicle ethanol (1% v/v). The mean value ± SEM for three independent experiments is shown. The positive control was CA-4 (1.0 μM and 0.1 μM).
HL-60 cells were suspension cells and the seeding density for the viability assay was 25,000 cells/mL. […]
The biochemical assays were performed in triplicate and on at least three independent occasions to facilitate the determination of mean values. […] Adherent cells such as MCF-7, MDA-MB-231, and MCF-10A were trypsinized to detach them from the flask, counted as previously described, and seeded in 96 well plates with a seeding density of 25,000 cells /mL (200 µL of suspension in each well so that the final number of cells per well was 5000) and 1 × 10^4 cells/well seeding density for suspension HL-60 cells. […] After 72 h, the change in color was measured by spectrofluorimetry at an excitation wavelength of 544 nm and emission wavelength of 590 nm. […]

Assay [2] has as its system purified bovine brain tubulin. Put plainly: Tubulin polymerization assay. The assay is classed as biochemical. The conditions noted are these: after 60 min. The procedure: The triazole 22b was selected for evaluation in the tubulin polymerization assay. Following the protocol previously described, the polymerization of purified bovine tubulin was monitored using a tubulin polymerization assay kit, BK006, (Cytoskeleton Inc., Denver, CO, USA). The assay was carried out using the purified bovine brain tubulin. Tubulin polymerization was determined spectrophotometrically by monitoring the change in turbidity since light is scattered proportionally to the concentration of polymerized microtubules in the assay. Lyophilized tubulin [128] (Cytoskeleton, Denver, CO, USA) (>99%, 3 mg/mL) was re-suspended in ice-cold G-PEM buffer (80 mM PIPES pH 6.9, […], 1 mM EGTA, 1 mM GTP, 10.2% (v/v) glycerol) and added to wells on a half volume 96-well plate containing the designated concentration of drug (10 or 30 μM). […] Samples were mixed well and the tubulin assembly was monitored at 340 nm at 30 s intervals for 60 min at 37 °C in a Spectramax 340PC spectrophotometer (Molecular Devices, San Jose, CA, USA).
Figure 13 Inhibition of tubulin polymerization in vitro by compound 22b. […] The progress of the tubulin polymerization reaction at 37 °C was monitored at 340 nm in a Spectramax 340PC spectrophotometer at 30 s intervals for 60 min. Fold inhibition of tubulin polymerization can be calculated from the Vmax value for each reaction. […]

The test system of assay [3] is tubulin in MCF-7 breast cancer cells. The experiment in a line: Immunofluorescence confocal microscopy of microtubules. The assay is classed as cell-based, human. The conditions noted are these: 16 h, 22b 10 μM, paclitaxel and phenstatin 1 μM. On the procedure:
Briefly, the MCF-7 cells were seeded at a density of 1 × 10^5 cells/mL on eight chamber glass slides (BD Biosciences). […] The cells were then washed in PBS, fixed for 20 min with 4% paraformaldehyde in PBS, and permeabilized in 0.5% Triton X-100. […] Images of the cells were obtained using Leica SP8 confocal microscopy (Wetzlar, Germany) with Leica application suite X software (Wetzlar, Germany). Experiments were performed on three independent occasions.
The micrograph images were obtained with Leica SP8 confocal microscopy utilizing Leica application suite X software. Representative confocal images of three separate experiments are shown. The scale bar indicates 25 μm.

Assay [4] addresses CYP1A1 (Homo sapiens, UniProt P04798). Put plainly: Cytochrome P450 assay (DBF fluorescence).

Sequence of CYP1A1 (P04798 whole entry): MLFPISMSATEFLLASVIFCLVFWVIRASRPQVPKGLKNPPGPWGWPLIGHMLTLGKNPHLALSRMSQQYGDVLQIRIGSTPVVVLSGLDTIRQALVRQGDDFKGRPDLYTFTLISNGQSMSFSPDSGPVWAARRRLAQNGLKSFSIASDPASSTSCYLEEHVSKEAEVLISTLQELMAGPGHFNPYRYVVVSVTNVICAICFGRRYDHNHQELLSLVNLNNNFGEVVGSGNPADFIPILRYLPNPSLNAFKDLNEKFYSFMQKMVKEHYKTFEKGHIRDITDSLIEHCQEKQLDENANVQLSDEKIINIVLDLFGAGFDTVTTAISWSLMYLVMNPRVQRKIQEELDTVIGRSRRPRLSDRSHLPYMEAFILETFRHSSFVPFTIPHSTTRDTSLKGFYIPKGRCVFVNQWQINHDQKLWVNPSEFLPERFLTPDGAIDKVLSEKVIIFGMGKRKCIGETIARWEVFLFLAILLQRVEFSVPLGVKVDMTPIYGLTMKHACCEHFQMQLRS

The term IC50 denotes the midpoint of a concentration-inhibition curve. Higher therefore signals weaker potency. For `COc1ccc(/C=C/C(c2cc(OC)c(OC)c(OC)c2)n2cncn2)cc1O` (stereo not drawn) [Compound 22b, (E)-5-(3-(1H-1,2,4-Triazol-1-yl)-3-(3,4,5-trimethoxyphenyl)prop-1-en-1-yl)-2-methoxyphenol], the half-inhibitory concentration (IC50) in assay [1] was 370 nM; in assay [1] (72 h), 366 ± 130 nM; in assay [4], over 53000 nM. Further, the “reduction in the polymer mass vs vehicle” value was 1.5 fold in assay [2] (10 μM) and 5 fold in assay [2] (30 μM). The “effect on microtubule network” value in assay [3] is “disorganized microtubule network structure similar to that observed with phenstatin, together with multinucleation”.

For the origin of these results see PMC11769294, “(E)-1-(3-(3-Hydroxy-4-Methoxyphenyl)-1-(3,4,5-Trimethoxyphenyl)allyl)-1H-1,2,4-Triazole and Related Compounds: Their Synthesis and Biological Evaluation as Novel Antimitotic Agents Targeting Breast Cancer” (Pharmaceuticals, 2025).
